From patent US20210254056A1, “IDENTIFICATION AND TARGETED MODULATION OF GENE SIGNALING NETWORKS” (CAMP4 THERAPEUTICS CORPORATION, priority 2017, published 2021)

How the values were obtained:
[1] = tested on: primary human hepatocytes; assay: RNA-seq of primary human hepatocytes treated with 39 small molecules (pilot and validation); details: for RNA-seq fold Δ (Log2): primary human hepatocytes; for Expected fold Δ: fold expected from RNA-seq Log2
[2] = tested on: primary human hepatocytes; assay: qRT-PCR validation of gene expression in hepatocytes from a second donor; type: cell-based
Method: qRT-PCR was performed on samples of primary human hepatocytes from a second donor. […] The 58 liver disease associated genes analyzed were ACADVL, ACAT2, ACSL1, ACSL5, AGPAT2, AGTR1, AHSG, ALAS1, AMACR, ANGPTL2, ARG1, CA12, CA2, CIDEC, COL1A1, CPS1, CPT1A, CPT2, CYP21A2, CYP2C19, CYP3A4, CYP7A1, ECH1, ENO3, ETFDH, FABP1, FABP6, G6PC, GHR, GLA, GYS2, HGD, HMGCR, HMGCS2, HMOX1, HOGA1, HPGD, IFT27, LDHA, LPIN2, MOGAT2, NCF2, PCSK9, POR, RMRP, SLC25A20, SLC2A2, SLC37A4, SLC51B, SLC6A20, SLC6A6, SOAT2, SULT2A1, TAT, TDO2, TMEM135, TNFSF11, and VLDLR as shown in Example 2.

CCOC(=O)N1c2ccc(C(F)(F)F)cc2[C@@H](N(Cc2cc(C(F)(F)F)cc(C(F)(F)F)c2)C(=O)OC)C[C@H]1CC [Torcetrapib]
RNA-seq fold Δ (Log2) ([1]; ACAT2 gene): 1.22 Log2 | Expected fold Δ ([1]; ACAT2 gene): 2.33 fold | RNA-seq fold Δ (Log2) ([1]; CYP7A1 gene): −1.42 Log2 | Expected fold Δ ([1]; CYP7A1 gene): 0.37 fold | RNA-seq fold Δ (Log2) ([1]; HMGCR gene): 1.26 Log2 | Expected fold Δ ([1]; HMGCR gene): 2.39 fold | RNA-seq fold Δ (Log2) ([1]; PCSK9 gene): 1.07 Log2 | Expected fold Δ ([1]; PCSK9 gene): 2.10 fold | RNA-seq fold Δ (Log2) ([1]; TNFS11 gene): 1.09 Log2 | Expected fold Δ ([1]; TNFS11 gene): 2.13 fold | Fold Δ ([2]; ACAT2 gene): 2.87 fold | Fold Δ ([2]; CYP7A1 gene): 0.85 fold | Fold Δ ([2]; HMGCR gene): 4.02 fold | Fold Δ ([2]; PCSK9 gene): 5.76 fold | Fold Δ ([2]; TNFS11 gene): 1.01 fold
